According to publication PMC12029925, “Kinetics of Manganese Peroxidase Using Simple Phenolic Compounds as Substrates” (Metabolites, 2025):

Test system: T1, MnP (manganese peroxidase)
T1 construct: gene MNP1; commercial recombinant enzyme (Sigma Aldrich), expressed in corn
Experiment: UV/Vis quinone formation at […] nm, Michaelis-Menten fit
Assay type: biochemical, Phanerochaete chrysosporium
Conditions: with 1 mM Mn(II); 0.05% H2O2; 0.1 M sodium acetate pH 4.5; 25 °C; 50 µM MnP; 8 min; apparent, oxidation may be mediated by Mn(III)

| Compound | Km [µM] |
| --- | --- |
| Oc1cccc(O)c1O [pyrogallol] | 280 |
| O=C(O)c1cc(O)c(O)c(O)c1 [gallic acid] | 660 |
